We go through five molecules from article PMC11062922 (Nature Chemical Biology, 2023).

In one experiment the test system is ADRBK1. Description: Kinobeads competition binding: ADRBK1. Further details: species or system human. The settings on record: target ADRBK1.
For another experiment, the system named is CDC42. Nature of the experiment: Kinobeads competition binding: CDC42. On the set-up: species or system human. The settings on record: target CDC42.
Another experiment concerns the target T1, CDK6 (Homo sapiens, UniProt Q00534).
T1 construct: endogenous in cells
Nature of the experiment: Kinobeads competition binding: CDK6. The settings on record: target CDK6.

In another experiment the test system is DDR1. Description: Kinobeads competition binding: DDR1. Further details: species or system human. The settings on record: target DDR1.
For another experiment, the target named is T2, EPHA1 (Homo sapiens, UniProt P21709).
T2 construct: endogenous in cells
T2 sequence (P21709 26-976): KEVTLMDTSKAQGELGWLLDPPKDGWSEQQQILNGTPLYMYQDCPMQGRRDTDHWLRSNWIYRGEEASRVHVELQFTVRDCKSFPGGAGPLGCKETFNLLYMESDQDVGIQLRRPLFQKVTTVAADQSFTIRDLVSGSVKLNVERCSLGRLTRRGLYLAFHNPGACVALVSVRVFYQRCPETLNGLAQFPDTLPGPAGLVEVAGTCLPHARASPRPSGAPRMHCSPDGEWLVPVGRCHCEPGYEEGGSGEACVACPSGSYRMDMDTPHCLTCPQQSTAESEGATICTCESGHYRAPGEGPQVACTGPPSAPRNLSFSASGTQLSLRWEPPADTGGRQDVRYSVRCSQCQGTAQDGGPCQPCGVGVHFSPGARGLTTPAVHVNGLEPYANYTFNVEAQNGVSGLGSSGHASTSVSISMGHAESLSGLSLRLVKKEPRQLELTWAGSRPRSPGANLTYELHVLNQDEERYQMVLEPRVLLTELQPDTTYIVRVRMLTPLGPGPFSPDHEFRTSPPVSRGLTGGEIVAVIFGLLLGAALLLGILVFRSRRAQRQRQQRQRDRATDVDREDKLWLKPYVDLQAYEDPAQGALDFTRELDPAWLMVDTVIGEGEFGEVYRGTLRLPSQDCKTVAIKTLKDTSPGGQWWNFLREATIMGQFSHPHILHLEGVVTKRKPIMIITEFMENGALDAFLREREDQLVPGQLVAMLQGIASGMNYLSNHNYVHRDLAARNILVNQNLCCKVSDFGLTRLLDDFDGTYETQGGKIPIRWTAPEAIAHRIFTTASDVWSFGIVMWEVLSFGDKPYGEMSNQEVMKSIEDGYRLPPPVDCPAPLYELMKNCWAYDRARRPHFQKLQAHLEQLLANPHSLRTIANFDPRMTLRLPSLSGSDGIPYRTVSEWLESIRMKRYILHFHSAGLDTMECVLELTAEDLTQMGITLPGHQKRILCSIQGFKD
Nature of the experiment: Kinobeads competition binding: EPHA1. As to conditions: target EPHA1. The source says:
Supplement 41589_2023_1459_MOESM4_ESM.xlsx, sheet "CATDS matrix" | column: EPHA1

The target of another experiment is T3, EPHB3 (Homo sapiens, UniProt P54753).
T3 construct: endogenous in cells
T3 sequence (P54753 34-998): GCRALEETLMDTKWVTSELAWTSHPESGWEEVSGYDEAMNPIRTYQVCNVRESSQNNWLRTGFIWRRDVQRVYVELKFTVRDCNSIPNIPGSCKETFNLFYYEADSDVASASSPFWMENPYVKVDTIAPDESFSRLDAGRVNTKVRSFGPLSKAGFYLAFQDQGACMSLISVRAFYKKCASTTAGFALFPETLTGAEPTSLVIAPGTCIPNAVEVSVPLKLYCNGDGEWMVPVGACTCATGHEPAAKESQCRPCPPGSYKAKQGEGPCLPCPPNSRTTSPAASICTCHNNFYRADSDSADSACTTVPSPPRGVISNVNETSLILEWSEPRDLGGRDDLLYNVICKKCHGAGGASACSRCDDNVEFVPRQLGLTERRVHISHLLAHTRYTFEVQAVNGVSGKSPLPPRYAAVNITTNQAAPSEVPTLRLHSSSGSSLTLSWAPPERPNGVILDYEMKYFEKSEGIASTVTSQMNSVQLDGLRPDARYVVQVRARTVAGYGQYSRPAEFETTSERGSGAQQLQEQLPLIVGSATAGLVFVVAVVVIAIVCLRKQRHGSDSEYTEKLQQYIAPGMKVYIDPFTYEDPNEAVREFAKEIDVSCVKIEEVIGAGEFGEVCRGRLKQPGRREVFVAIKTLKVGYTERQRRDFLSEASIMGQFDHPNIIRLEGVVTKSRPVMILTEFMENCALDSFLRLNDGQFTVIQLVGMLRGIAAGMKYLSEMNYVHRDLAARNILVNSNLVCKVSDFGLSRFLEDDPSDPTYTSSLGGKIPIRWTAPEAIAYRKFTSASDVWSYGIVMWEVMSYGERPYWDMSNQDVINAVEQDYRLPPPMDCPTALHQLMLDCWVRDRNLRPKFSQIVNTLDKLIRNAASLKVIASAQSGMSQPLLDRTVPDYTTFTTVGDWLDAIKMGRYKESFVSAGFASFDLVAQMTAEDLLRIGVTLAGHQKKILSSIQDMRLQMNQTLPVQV
Nature of the experiment: Kinobeads competition binding: EPHB3. The settings on record: target EPHB3. The source says: Supplement 41589_2023_1459_MOESM4_ESM.xlsx, sheet "CATDS matrix" | column: EPHB3

The target of another experiment is T4, FLT4 (Homo sapiens, UniProt P35916).
T4 construct: endogenous in cells
Description: Kinobeads competition binding: FLT4.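 Note: share of total target engagement due to this protein at one drug concentration.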 As to conditions: target FLT4.

A further experiment deals with T5, FYN (Homo sapiens, UniProt P06241).
T5 construct: endogenous in cells
Nature of the experiment: Kinobeads competition binding: FYN.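 Note: share of total target engagement due to this protein at one drug concentration.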 As to conditions: target FYN. From the text:
Supplement 41589_2023_1459_MOESM4_ESM.xlsx, sheet "CATDS matrix" | column: FYN

Another experiment deals with MAP3K11. Nature of the experiment: Kinobeads competition binding: MAP3K11. On the set-up: species or system human. The settings on record: target MAP3K11.
In a further experiment the test system is MYLK3. Nature of the experiment: Kinobeads competition binding: MYLK3.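 Note: share of all-target engagement taken by this protein at its own Kdapp concentration.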 On the set-up: species or system human. The settings on record: target MYLK3.
The target of another experiment is T6, PIK3CA (Homo sapiens, UniProt P42336).
T6 construct: a mixture of lysates from five cancer cell lines; endogenous in cells
Description: Kinobeads competition binding: PIK3CA.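 Note: share of all-target engagement taken by this protein at its own Kdapp concentration.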 The settings on record: target PIK3CA. The source says: Supplement 41589_2023_1459_MOESM4_ESM.xlsx, sheet "CATDS matrix" | column: PIK3CA

For another experiment, the system named is PIK3CB. Nature of the experiment: Kinobeads competition binding: PIK3CB. As to conditions: target PIK3CB. Further details: species or system human.
A further experiment concerns the target T7, PIK3CD (Homo sapiens, UniProt O00329).
T7 construct: a mixture of lysates from five cancer cell lines; endogenous in cells
Nature of the experiment: Kinobeads competition binding: PIK3CD. The settings on record: target PIK3CD.

Another experiment concerns the target T8, PIM2 (Homo sapiens, UniProt Q9P1W9).
T8 construct: a mixture of lysates from five cancer cell lines; endogenous in cells
Description: Kinobeads competition binding: PIM2. The settings on record: target PIM2. From the text:
Supplement 41589_2023_1459_MOESM4_ESM.xlsx, sheet "CATDS matrix" | column: PIM2

T6 sequence (P42336 whole entry): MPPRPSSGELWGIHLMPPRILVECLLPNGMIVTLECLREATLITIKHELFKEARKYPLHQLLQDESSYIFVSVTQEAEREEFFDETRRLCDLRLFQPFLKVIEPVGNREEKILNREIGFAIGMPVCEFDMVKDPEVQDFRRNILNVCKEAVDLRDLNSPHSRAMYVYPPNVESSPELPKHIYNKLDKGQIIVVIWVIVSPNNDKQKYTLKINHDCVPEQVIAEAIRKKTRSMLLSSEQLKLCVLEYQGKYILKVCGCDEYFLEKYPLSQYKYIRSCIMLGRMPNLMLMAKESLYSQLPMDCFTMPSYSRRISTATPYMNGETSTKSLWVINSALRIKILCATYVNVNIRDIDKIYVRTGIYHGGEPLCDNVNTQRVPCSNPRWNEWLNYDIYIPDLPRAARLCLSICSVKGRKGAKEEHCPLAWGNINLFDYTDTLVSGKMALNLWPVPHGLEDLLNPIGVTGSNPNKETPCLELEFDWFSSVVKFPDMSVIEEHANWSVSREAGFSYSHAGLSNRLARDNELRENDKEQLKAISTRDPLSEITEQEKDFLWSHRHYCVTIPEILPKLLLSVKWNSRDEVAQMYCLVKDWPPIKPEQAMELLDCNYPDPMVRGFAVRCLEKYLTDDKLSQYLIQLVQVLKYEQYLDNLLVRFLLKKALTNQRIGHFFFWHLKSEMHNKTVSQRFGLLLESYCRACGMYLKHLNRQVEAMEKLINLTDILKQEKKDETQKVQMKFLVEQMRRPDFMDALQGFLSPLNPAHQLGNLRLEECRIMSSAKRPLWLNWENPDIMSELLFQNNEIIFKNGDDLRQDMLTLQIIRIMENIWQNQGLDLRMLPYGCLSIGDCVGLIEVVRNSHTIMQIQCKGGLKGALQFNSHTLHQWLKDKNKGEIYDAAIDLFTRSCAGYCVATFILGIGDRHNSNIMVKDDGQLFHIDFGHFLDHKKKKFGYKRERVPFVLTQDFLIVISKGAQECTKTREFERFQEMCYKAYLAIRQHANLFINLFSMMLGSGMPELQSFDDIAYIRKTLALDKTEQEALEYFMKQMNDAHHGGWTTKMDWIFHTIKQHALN
T6 sequence (P27986 whole entry partner): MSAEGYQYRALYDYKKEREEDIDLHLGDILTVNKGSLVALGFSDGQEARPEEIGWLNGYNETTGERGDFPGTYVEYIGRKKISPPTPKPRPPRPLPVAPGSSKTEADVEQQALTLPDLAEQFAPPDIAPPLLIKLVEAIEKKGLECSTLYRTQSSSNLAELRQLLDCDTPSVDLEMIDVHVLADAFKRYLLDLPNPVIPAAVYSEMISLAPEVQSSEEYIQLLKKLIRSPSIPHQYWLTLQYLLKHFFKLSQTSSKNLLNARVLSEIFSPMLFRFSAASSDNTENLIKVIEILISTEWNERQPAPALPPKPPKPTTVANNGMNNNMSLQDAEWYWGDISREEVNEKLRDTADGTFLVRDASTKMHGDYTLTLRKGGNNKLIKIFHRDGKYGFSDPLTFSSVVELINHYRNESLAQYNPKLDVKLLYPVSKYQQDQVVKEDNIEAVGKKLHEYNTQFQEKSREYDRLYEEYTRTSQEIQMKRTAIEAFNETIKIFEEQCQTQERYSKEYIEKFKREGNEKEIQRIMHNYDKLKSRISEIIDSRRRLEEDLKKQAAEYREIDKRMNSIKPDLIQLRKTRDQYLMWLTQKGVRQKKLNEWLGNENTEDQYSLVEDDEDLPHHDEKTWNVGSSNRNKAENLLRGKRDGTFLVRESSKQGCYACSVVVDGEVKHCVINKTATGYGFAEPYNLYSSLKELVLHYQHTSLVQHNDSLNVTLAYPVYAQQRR
T1 sequence (Q00534 whole entry): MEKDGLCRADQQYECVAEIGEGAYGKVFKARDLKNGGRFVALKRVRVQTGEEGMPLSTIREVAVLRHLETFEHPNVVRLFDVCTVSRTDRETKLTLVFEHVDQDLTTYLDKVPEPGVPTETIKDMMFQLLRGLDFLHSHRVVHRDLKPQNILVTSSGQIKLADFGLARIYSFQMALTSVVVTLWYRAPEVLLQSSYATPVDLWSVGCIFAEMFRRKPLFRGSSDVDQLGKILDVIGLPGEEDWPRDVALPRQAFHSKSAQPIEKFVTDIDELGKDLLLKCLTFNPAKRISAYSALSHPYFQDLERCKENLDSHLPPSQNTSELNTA
T7 sequence (O00329 whole entry): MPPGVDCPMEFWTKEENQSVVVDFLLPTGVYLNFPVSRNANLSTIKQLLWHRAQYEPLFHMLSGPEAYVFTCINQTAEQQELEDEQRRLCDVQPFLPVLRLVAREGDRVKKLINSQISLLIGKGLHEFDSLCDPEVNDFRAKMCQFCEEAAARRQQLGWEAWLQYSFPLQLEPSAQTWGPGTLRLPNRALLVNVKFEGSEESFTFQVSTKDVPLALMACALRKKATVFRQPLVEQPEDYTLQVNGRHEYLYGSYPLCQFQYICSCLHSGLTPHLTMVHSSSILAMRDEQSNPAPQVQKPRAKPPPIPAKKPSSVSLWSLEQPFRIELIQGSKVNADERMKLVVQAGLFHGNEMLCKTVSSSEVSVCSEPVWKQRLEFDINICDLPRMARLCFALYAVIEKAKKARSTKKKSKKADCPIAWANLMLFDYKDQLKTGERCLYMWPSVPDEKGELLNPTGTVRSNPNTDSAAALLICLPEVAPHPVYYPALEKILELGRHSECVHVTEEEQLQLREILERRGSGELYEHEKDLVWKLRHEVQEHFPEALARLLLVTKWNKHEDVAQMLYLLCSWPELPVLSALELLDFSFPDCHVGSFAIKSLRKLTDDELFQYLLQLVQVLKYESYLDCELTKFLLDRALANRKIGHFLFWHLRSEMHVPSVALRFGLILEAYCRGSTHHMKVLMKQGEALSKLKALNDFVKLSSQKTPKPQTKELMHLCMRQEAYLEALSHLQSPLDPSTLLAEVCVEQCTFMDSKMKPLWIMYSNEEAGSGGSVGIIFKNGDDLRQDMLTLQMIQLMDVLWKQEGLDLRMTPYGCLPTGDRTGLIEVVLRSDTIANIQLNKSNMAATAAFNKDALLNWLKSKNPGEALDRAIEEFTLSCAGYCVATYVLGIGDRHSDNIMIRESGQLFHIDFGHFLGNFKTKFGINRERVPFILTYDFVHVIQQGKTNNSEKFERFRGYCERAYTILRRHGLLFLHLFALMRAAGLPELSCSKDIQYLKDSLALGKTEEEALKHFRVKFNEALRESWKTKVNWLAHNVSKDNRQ
T7 sequence (P27986 whole entry partner): as the sequence (P27986 whole entry partner) above
T8 sequence (Q9P1W9 whole entry): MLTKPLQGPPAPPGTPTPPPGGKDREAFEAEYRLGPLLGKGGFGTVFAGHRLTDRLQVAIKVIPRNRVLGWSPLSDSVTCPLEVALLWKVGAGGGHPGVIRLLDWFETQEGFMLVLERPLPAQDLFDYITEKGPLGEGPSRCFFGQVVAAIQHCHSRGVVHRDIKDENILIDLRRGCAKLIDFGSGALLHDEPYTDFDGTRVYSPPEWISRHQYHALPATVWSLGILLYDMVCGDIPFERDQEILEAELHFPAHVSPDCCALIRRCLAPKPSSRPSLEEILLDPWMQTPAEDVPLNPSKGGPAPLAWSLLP
T5 sequence (P06241 whole entry): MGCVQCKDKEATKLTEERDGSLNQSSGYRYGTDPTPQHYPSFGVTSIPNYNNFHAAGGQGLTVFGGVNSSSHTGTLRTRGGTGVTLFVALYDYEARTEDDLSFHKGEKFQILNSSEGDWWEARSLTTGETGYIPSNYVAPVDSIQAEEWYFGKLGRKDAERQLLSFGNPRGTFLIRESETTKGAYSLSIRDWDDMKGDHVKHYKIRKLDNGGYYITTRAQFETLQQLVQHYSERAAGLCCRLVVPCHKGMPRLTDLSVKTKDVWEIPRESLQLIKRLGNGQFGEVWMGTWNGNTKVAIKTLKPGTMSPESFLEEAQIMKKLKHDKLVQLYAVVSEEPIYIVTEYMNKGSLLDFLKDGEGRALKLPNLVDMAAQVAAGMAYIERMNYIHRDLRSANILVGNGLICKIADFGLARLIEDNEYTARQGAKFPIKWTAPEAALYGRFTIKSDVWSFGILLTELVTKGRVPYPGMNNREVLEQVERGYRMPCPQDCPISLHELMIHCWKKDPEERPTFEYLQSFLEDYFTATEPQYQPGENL

For `Nc1ncnc2[nH]c(-c3ccccc3)nc12` [AH5015_KCGS], the CATDS in the experiment with ADRBK1, in the experiment with CDC42, on CDK6, in the experiment with DDR1, on EPHA1 and on EPHB3 was 0 in each case. Also, the CATDS on FLT4, at FYN, in the experiment with MAP3K11, in the experiment with MYLK3, on PIK3CA and in the experiment on PIK3CB was 0 each time. The CATDS was determined as 0.05532 on PIK3CD and 0 at PIM2.
With `CCN1CCN(Cc2ccc(Nc3ncc(F)c(-c4cc(F)c5nc(C)n(C(C)C)c5c4)n3)nc2)CC1` [Abemaciclib], the CATDS in the experiment with ADRBK1, in the experiment with CDC42, in the experiment with DDR1, at EPHA1, on EPHB3 and on FLT4 was 0 each time. The CATDS at FYN, in the experiment with MAP3K11, in the experiment on MYLK3, at PIK3CA, with PIK3CB and on PIK3CD was 0 in each case. Further, the CATDS on PIM2 worked out at 0.
For the molecule `CN(C)C/C=C/C(=O)Nc1cc2c(Nc3ccc(F)c(Cl)c3)ncnc2cc1O[C@H]1CCOC1` [Afatinib], the CATDS in the experiment with CDC42, at EPHA1, at EPHB3, at FYN, at PIK3CA and at PIM2 was 0 each time.
Turning to `CCc1cc2c(cc1N1CCC(N3CCOCC3)CC1)C(C)(C)c1[nH]c3cc(C#N)ccc3c1C2=O` [Alectinib], the CATDS with ADRBK1, in the experiment on CDC42, on CDK6, in the experiment with DDR1, at EPHA1 and on EPHB3 was 0 throughout. The CATDS at FLT4, on FYN, with MAP3K11, in the experiment on MYLK3, on PIK3CA and in the experiment on PIK3CB was 0 each time. For the same molecule, the CATDS at PIK3CD and on PIM2 was 0 throughout.
In the case of `N#CC1(c2ccc(NC(=O)c3cccnc3NCc3ccncc3)cc2)CCCC1` [Apatinib], the CATDS with ADRBK1, in the experiment with CDC42, at CDK6, with DDR1, on EPHA1 and at EPHB3 was 0 each time. For the same molecule, the CATDS at FLT4, at FYN, in the experiment on MAP3K11, in the experiment with MYLK3, at PIK3CA and with PIK3CB was 0 throughout. The CATDS on PIK3CD and on PIM2 was 0 each time.
